In the supplement of paper PMC5373622, “Screening for AMPA receptor auxiliary subunit specific modulators” (PLoS ONE, 2017):
± gives the standard deviation of the averaged measurements.

Tests used:
GRIA2 [1] = experiment: compound-evoked VSD slope (no glutamate), % of maximal glutamate slope; higher = agonist activity
Method: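 VSD concentration-response of known AMPAR ligands (fluorowillardiine, CX-546, cyclothiazide) on A2R-stg and A2R-C3 HEK293 cells, with compound added before EC50 glutamate. Per-well GluSlope and compound-window slope are given as % of the maximal-glutamate slope after vehicle subtraction.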

GRIA2 [2] = experiment: glutamate-evoked VSD slope, % of maximal glutamate response; higher = potentiation

Row | SMILES | compound-evoked VSD slope (GRIA2 [1]; 3.91 µM, clone: A2R-C3) [%] | compound-evoked VSD slope (GRIA2 [1]; 3.91 µM, clone: A2R-stg) [%] | compound-evoked VSD slope (GRIA2 [1]; 7.81 µM, clone: A2R-C3) [%] | compound-evoked VSD slope (GRIA2 [1]; 7.81 µM, clone: A2R-stg) [%] | compound-evoked VSD slope (GRIA2 [1]; 15.6 µM, clone: A2R-C3) [%] | compound-evoked VSD slope (GRIA2 [1]; 15.6 µM, clone: A2R-stg) [%] | compound-evoked VSD slope (GRIA2 [1]; 31.2 µM, clone: A2R-C3) [%] | compound-evoked VSD slope (GRIA2 [1]; 31.2 µM, clone: A2R-stg) [%] | compound-evoked VSD slope (GRIA2 [1]; 62.5 µM, clone: A2R-C3) [%] | compound-evoked VSD slope (GRIA2 [1]; 62.5 µM, clone: A2R-stg) [%] | compound-evoked VSD slope (GRIA2 [1]; 0.000125 M, clone: A2R-C3) [%] | compound-evoked VSD slope (GRIA2 [1]; 0.000125 M, clone: A2R-stg) [%] | compound-evoked VSD slope (GRIA2 [1]; 0.0005 M, clone: A2R-C3) [%] | compound-evoked VSD slope (GRIA2 [1]; 0.001 M, clone: A2R-C3) [%] | glutamate-evoked VSD slope (GRIA2 [2]; 3.91 µM, clone: A2R-C3) [%] | glutamate-evoked VSD slope (GRIA2 [2]; 7.81 µM, clone: A2R-C3) [%] | glutamate-evoked VSD slope (GRIA2 [2]; 7.81 µM, clone: A2R-stg) [%] | glutamate-evoked VSD slope (GRIA2 [2]; 15.6 µM, clone: A2R-C3) [%] | glutamate-evoked VSD slope (GRIA2 [2]; 15.6 µM, clone: A2R-stg) [%] | glutamate-evoked VSD slope (GRIA2 [2]; 31.2 µM, clone: A2R-stg) [%] | glutamate-evoked VSD slope (GRIA2 [2]; 62.5 µM, clone: A2R-C3) [%] | glutamate-evoked VSD slope (GRIA2 [2]; 62.5 µM, clone: A2R-stg) [%] | glutamate-evoked VSD slope (GRIA2 [2]; 0.000125 M, clone: A2R-C3) [%] | glutamate-evoked VSD slope (GRIA2 [2]; 0.00025 M, clone: A2R-stg) [%] | glutamate-evoked VSD slope (GRIA2 [2]; 0.0005 M, clone: A2R-C3) [%] | glutamate-evoked VSD slope (GRIA2 [2]; 0.001 M, clone: A2R-C3) [%] | glutamate-evoked VSD slope (GRIA2 [2]; 0.001 M, clone: A2R-stg) [%] | compound-evoked VSD slope (GRIA2 [1]; 1.95 µM, clone: A2R-C3) [%] | compound-evoked VSD slope (GRIA2 [1]; 1.95 µM, clone: A2R-stg) [%] | compound-evoked VSD slope (GRIA2 [1]; 0.00025 M, clone: A2R-C3) [%] | compound-evoked VSD slope (GRIA2 [1]; 0.00025 M, clone: A2R-stg) [%] | compound-evoked VSD slope (GRIA2 [1]; 0.0005 M, clone: A2R-stg) [%] | glutamate-evoked VSD slope (GRIA2 [2]; 1.95 µM, clone: A2R-C3) [%] | glutamate-evoked VSD slope (GRIA2 [2]; 1.95 µM, clone: A2R-stg) [%] | glutamate-evoked VSD slope (GRIA2 [2]; 3.91 µM, clone: A2R-stg) [%] | glutamate-evoked VSD slope (GRIA2 [2]; 31.2 µM, clone: A2R-C3) [%] | glutamate-evoked VSD slope (GRIA2 [2]; 0.000125 M, clone: A2R-stg) [%] | glutamate-evoked VSD slope (GRIA2 [2]; 0.0005 M, clone: A2R-stg) [%]
1 | O=C(c1ccc2c(c1)OCCO2)N1CCCCC1 [CX-546] | 16.4 ± 1.7 | 26.8 ± 0.99 | 16.9 ± 0.81 | 27.4 ± 1 | 16.1 ± 4.3 | 26.7 ± 1.3 | 16.2 ± 3.6 | 26.7 ± 1.4 | 18.9 ± 2.4 | 28 ± 0.66 | 18.9 ± 0.99 | 29.5 ± 0.74 | 23.4 ± 0.91 | 29.1 ± 1.2 | 12.5 ± 1.8 | 10.8 ± 3.4 | 20.7 ± 4.5 | 15.8 ± 6.4 | 24.6 ± 8 | 24.9 ± 3.2 | 23 ± 2 | 41.4 ± 4.9 | 25.6 ± 3.4 | 53.6 ± 3 | 40.3 ± 4.6 | 47.6 ± 10 | 54.1 ± 3.9 |  |  |  |  |  |  |  |  |  |  | 
2 | NS(=O)(=O)c1cc2c(cc1Cl)NC(C1CC3C=CC1C3)NS2(=O)=O (configuration not stated) [cyclothiazide] | 18.4 ± 1.1 | 26.6 ± 1.6 | 15.7 ± 1.1 | 27.1 ± 1.4 | 18 ± 1.3 | 27.3 ± 0.81 | 18.6 ± 0.53 | 27.7 ± 1.1 | 18.6 ± 1.4 | 28.8 ± 0.79 | 19.2 ± 1.4 | 29 ± 0.62 | 20.7 ± 1.4 |  | 26.7 ± 2.5 | 42.8 ± 3.3 | 52.6 ± 3.2 | 56.6 ± 5.3 | 60 ± 5.6 | 62.7 ± 9.1 | 70.9 ± 3.4 | 68.8 ± 4 | 63.8 ± 21 | 71.3 ± 3.3 | 69 ± 4.6 |  |  | 16.2 ± 1.1 | 27.7 ± 0.73 | 20.3 ± 1.3 | 28.2 ± 1.1 | 27.5 ± 1.8 | 23 ± 3.3 | 30.6 ± 5.6 | 37.5 ± 5.1 | 65.2 ± 3.7 | 68.4 ± 3.5 | 65.9 ± 8.1
